Experiment: Stability of cannabinoid compounds and Vitamin E components in Beverage 1 (AB White) by LCMSMS
Assay type: physicochemical

SMILES: Cc1c(C)c2c(c(C)c1OC(=O)CCC(=O)O)CC[C@@](C)(CCC[C@H](C)CCC[C@H](C)CCCC(C)C)O2 [α-Tocopheryl succinate]
- Stability of Vitamin Es in AB White (stored at 8° C., 0 days): 12.8 µg/mL
- Stability of Vitamin Es in AB White (stored at 8° C., 1 days): 11.83 µg/mL
- Stability of Vitamin Es in AB White (stored at 8° C., 2 days): 12.31 µg/mL
- Stability of Vitamin Es in AB White (stored at 8° C., 3 days): 11.94 µg/mL
- Stability of Vitamin Es in AB White (stored at 8° C., 5 days): 11.44 µg/mL
- Stability of Vitamin Es in AB White (stored at 8° C., 8 days): 11.48 µg/mL
- Stability of Vitamin Es in AB White (stored at 8° C., 9 days): 12.08 µg/mL
- Stability of Vitamin Es in AB White (stored at 8° C., 10 days): 12.28 µg/mL
- Stability of Vitamin Es in AB White (stored at 8° C., 11 days): 11.94 µg/mL
- Stability of Vitamin Es in AB White (stored at 8° C., 12 days): 12.41 µg/mL
- Stability of Vitamin Es in AB White (stored at 8° C., 15 days): 11.56 µg/mL
- Stability of Vitamin Es in AB White (stored at 8° C., 16 days): 12.09 µg/mL
- Stability of Vitamin Es in AB White (stored at 8° C., 17 days): 11.60 µg/mL
- Stability of Vitamin Es in AB White (stored at 8° C., 18 days): 11.59 µg/mL
- Stability of Vitamin Es in AB White (stored at 8° C., 19 days): 11.89 µg/mL
- Stability of Vitamin Es in AB White (stored at 8° C., 22 days): 11.81 µg/mL
- Stability of Vitamin Es in AB White (stored at 8° C., 23 days): 11.46 µg/mL
- Stability of Vitamin Es in AB White (stored at 8° C., 24 days): 11.75 µg/mL
- Stability of Vitamin Es in AB White (stored at 8° C., 25 days): 12.41 µg/mL
- Stability of Vitamin Es in AB White (stored at 8° C., 26 days): 11.64 µg/mL
- Stability of Vitamin Es in AB White (stored at 8° C., 29 days): 12.43 µg/mL
- Stability of Vitamin Es in AB White (stored at 8° C., 30 days): 11.78 µg/mL
- Stability of Vitamin Es in AB White (stored at 8° C., 60 days): 12.18 µg/mL
- Stability of Vitamin Es in AB White (stored at 8° C., 90 days): 11.33 µg/mL
- Stability of Vitamin Es in AB White (stored at 8° C., 120 days): 11.31 µg/mL
- Stability of Vitamin Es in AB White (stored at 8° C., 150 days): 12.29 µg/mL
- Stability of Vitamin Es in AB White (stored at 8° C., 180 days): 11.74 µg/mL
- Stability of Vitamin Es in AB White (stored at 8° C., 210 days): 11.40 µg/mL
- Stability of Vitamin Es in AB White (stored at 8° C., 240 days): 11.70 µg/mL
- Stability of Vitamin Es in AB White (stored at 8° C., 270 days): 11.24 µg/mL
- Stability of Vitamin Es in AB White (stored at 8° C., 300 days): 11.53 µg/mL
- Stability of Vitamin Es in AB White (stored at 8° C., 330 days): 11.81 µg/mL
- Stability of Vitamin Es in AB White (stored at 8° C., 360 days): 11.10 µg/mL
- Stability of Vitamin Es in AB White (stored at 8° C., 390 days): 11.34 µg/mL
- Stability of Vitamin Es in AB White (stored at 8° C., 420 days): 11.30 µg/mL
- Stability of Vitamin Es in AB White (stored at 8° C., 450 days): 11.28 µg/mL
- Stability of Vitamin Es in AB White (stored at 8° C., 480 days): 10.58 µg/mL
- Stability of Vitamin Es in AB White (stored at 8° C., 510 days): 10.83 µg/mL
- Stability of Vitamin Es in AB White (stored at 8° C., 540 days): 10.58 µg/mL
- Stability of Vitamin Es in AB White (stored at 8° C., 570 days): 10.93 µg/mL
- Stability of Vitamin Es in AB White (stored at 21-25° C., 0 days): 12.8 µg/mL
- Stability of Vitamin Es in AB White (stored at 21-25° C., 1 days): 12.6 µg/mL
- Stability of Vitamin Es in AB White (stored at 21-25° C., 2 days): 12.3 µg/mL
- Stability of Vitamin Es in AB White (stored at 21-25° C., 3 days): 12.0 µg/mL
- Stability of Vitamin Es in AB White (stored at 21-25° C., 5 days): 12.0 µg/mL
- Stability of Vitamin Es in AB White (stored at 21-25° C., 8 days): 11.9 µg/mL
- Stability of Vitamin Es in AB White (stored at 21-25° C., 9 days): 12.7 µg/mL
- Stability of Vitamin Es in AB White (stored at 21-25° C., 10 days): 12.5 µg/mL
- Stability of Vitamin Es in AB White (stored at 21-25° C., 11 days): 11.8 µg/mL
- Stability of Vitamin Es in AB White (stored at 21-25° C., 12 days): 11.6 µg/mL
- Stability of Vitamin Es in AB White (stored at 21-25° C., 15 days): 12.6 µg/mL
- Stability of Vitamin Es in AB White (stored at 21-25° C., 16 days): 11.7 µg/mL
- Stability of Vitamin Es in AB White (stored at 21-25° C., 17 days): 13.0 µg/mL
- Stability of Vitamin Es in AB White (stored at 21-25° C., 18 days): 12.9 µg/mL
- Stability of Vitamin Es in AB White (stored at 21-25° C., 19 days): 12.3 µg/mL
- Stability of Vitamin Es in AB White (stored at 21-25° C., 22 days): 12.2 µg/mL
- Stability of Vitamin Es in AB White (stored at 21-25° C., 23 days): 12.3 µg/mL
- Stability of Vitamin Es in AB White (stored at 21-25° C., 24 days): 12.5 µg/mL
- Stability of Vitamin Es in AB White (stored at 21-25° C., 25 days): 12.4 µg/mL
- Stability of Vitamin Es in AB White (stored at 21-25° C., 26 days): 12.2 µg/mL
- Stability of Vitamin Es in AB White (stored at 21-25° C., 29 days): 12.4 µg/mL
- Stability of Vitamin Es in AB White (stored at 21-25° C., 30 days): 12.0 µg/mL
- Stability of Vitamin Es in AB White (stored at 21-25° C., 60 days): 11.9 µg/mL
- Stability of Vitamin Es in AB White (stored at 21-25° C., 90 days): 11.9 µg/mL
- Stability of Vitamin Es in AB White (stored at 21-25° C., 120 days): 12.1 µg/mL
- Stability of Vitamin Es in AB White (stored at 21-25° C., 150 days): 12.7 µg/mL
- Stability of Vitamin Es in AB White (stored at 21-25° C., 180 days): 11.6 µg/mL
- Stability of Vitamin Es in AB White (stored at 21-25° C., 210 days): 11.5 µg/mL
- Stability of Vitamin Es in AB White (stored at 21-25° C., 240 days): 11.5 µg/mL
- Stability of Vitamin Es in AB White (stored at 21-25° C., 270 days): 11.2 µg/mL
- Stability of Vitamin Es in AB White (stored at 21-25° C., 300 days): 11.4 µg/mL
- Stability of Vitamin Es in AB White (stored at 21-25° C., 330 days): 11.3 µg/mL
- Stability of Vitamin Es in AB White (stored at 21-25° C., 360 days): 11.5 µg/mL
- Stability of Vitamin Es in AB White (stored at 21-25° C., 390 days): 11.3 µg/mL
- Stability of Vitamin Es in AB White (stored at 21-25° C., 420 days): 11.6 µg/mL
- Stability of Vitamin Es in AB White (stored at 21-25° C., 450 days): 11.5 µg/mL
- Stability of Vitamin Es in AB White (stored at 21-25° C., 480 days): 10.8 µg/mL
- Stability of Vitamin Es in AB White (stored at 21-25° C., 510 days): 10.9 µg/mL
- Stability of Vitamin Es in AB White (stored at 21-25° C., 540 days): 10.9 µg/mL
- Stability of Vitamin Es in AB White (stored at 21-25° C., 570 days): 10.6 µg/mL

Source: patent US20260130395A1, “Water Dispersible Botanical Compositions” (Aquila Black Limited, priority 2021, published 2026)
